# Experiment: Phase 1b study in patients with chronic HCV genotype 1 infection
# Type: in vivo, human
# Details: evening after dinner for more than 4 h
# Procedure: Yimitasvir is a novel, oral HCV non-structural protein 5A (NS5A) inhibitor for the treatment of chronic HCV genotype 1 infection in combination with sofosbuvir. The pharmacokinetic profile of yimitasvir has been evaluated in healthy volunteers and patients with chronic HCV infection ([Zhang et al., 2018]; [Zhao et al., 2019]). Following fasted single oral dose of yimitasvir in healthy volunteers, yimitasvir was absorbed with a peak concentration (Cmax) 3.5–4.0 h post-dose. […] Yimitasvir was approximately 79.2–86.6% bound to human plasma proteins and the binding was independent of drug concentration over the range of 100–2000 ng ml^−1. No metabolism of yimitasvir was detected in vitro during incubations with hepatic microsomes from mice, rats, dogs, monkeys and humans. […] Steady state was achieved by day 5 following the once daily dosing regimen. […] Yimitasvir is a substrate and inhibitor of the drug transporter P-glycoprotein (P-gp).
# The current population PK analysis of yimitasvir was performed using rich and sparse PK samples collected from six clinical pharmacology trials [4 phase 1 ([Zhao et al., 2019]), 1 phase 1b ([Zhang et al., 2018]) and 1 phase 2 studies] in Chinese healthy volunteers and HCV-infected patients. […]
smiles,measurement,value
COC(=O)NC(C(=O)N1CCCC1c1ncc(-c2ccc(-c3ccc(-c4ccc5nc(C6CCCN6C(=O)C(NC(=O)OC)C(C)C)[nH]c5c4)c4c3C3CCC4C3)cc2)[nH]1)C(C)C (stereo not shown) [yimitasvir],AUC decrease compared to phase 1 SAD trial,40%

# From article PMC7876056, “Population Pharmacokinetic Analysis of Yimitasvir in Chinese Healthy Volunteers and Patients With Chronic Hepatitis C Virus Infection” (Frontiers in Pharmacology, 2021)
